Test results taken from ChEMBL document CHEMBL3885881, “DrugMatrix”.

Species: Rattus norvegicus
Assay: DrugMatrix - Regimen: Daily Repeat
Assay type: toxicity, organism-based, Sprague-Dawley
Design: regimen Daily Repeat, gender Male, age 6-8 weeks
Conditions: in vivo, po, 17 mg/kg, route oral GAVAGE, dose level High, vehicle .5 % CMC; for ABSOLUTE BASOPHIL / ABSOLUTE EOSINOPHIL / ABSOLUTE LYMPHOCYTE / ABSOLUTE MONOCYTE / ABSOLUTE SEGMENTED NEUTROPHIL / BASOPHIL / EOSINOPHIL / ERYTHROCYTE COUNT / HEMATOCRIT / HEMOGLOBIN / LEUKOCYTE COUNT / LYMPHOCYTE / MEAN CORPUSCULAR HEMOGLOBIN / MEAN CORPUSCULAR HEMOGLOBIN CONCENTRATION / MONOCYTE / NEUTROPHIL / NUCLEATED RED BLOOD CELLS / PLATELET COUNT: tissue Blood
[1] = 72 h, tissue Plasma, time 3 day
[2] = 96 h, tissue Plasma, time 4 day

SMILES: O=C(Nc1c(Cl)cncc1Cl)c1ccc(OC(F)F)c(OCC2CC2)c1 [ROFLUMILAST]
- ABSOLUTE BASOPHIL (72 h, time 3 day): 0 CELLS/uL
- ABSOLUTE EOSINOPHIL (72 h, time 3 day): 460.33 CELLS/uL
- ABSOLUTE LYMPHOCYTE (72 h, time 3 day): 8656.33 CELLS/uL
- ABSOLUTE MONOCYTE (72 h, time 3 day): 1347.33 CELLS/uL
- ABSOLUTE SEGMENTED NEUTROPHIL (72 h, time 3 day): 10002.67 CELLS/uL
- BASOPHIL (72 h, time 3 day): 0%
- EOSINOPHIL (72 h, time 3 day): 2.33%
- ERYTHROCYTE COUNT (72 h, time 3 day): 6.23 x10E6/uL
- HEMATOCRIT (72 h, time 3 day): 37.23%
- HEMOGLOBIN (72 h, time 3 day): 13.5 G/DL
- LEUKOCYTE COUNT (72 h, time 3 day): 20.47 x10E3/uL
- LYMPHOCYTE (72 h, time 3 day): 42.67%
- MEAN CORPUSCULAR HEMOGLOBIN (72 h, time 3 day): 21.7 pg
- MEAN CORPUSCULAR HEMOGLOBIN CONCENTRATION (72 h, time 3 day): 36.27 G/DL
- MONOCYTE (72 h, time 3 day): 6.33%
- NEUTROPHIL (72 h, time 3 day): 48.67%
- NUCLEATED RED BLOOD CELLS (72 h, time 3 day): 0 /100WBC
- PLATELET COUNT (72 h, time 3 day): 1131 x10E3/uL
- ALANINE AMINOTRANSFERASE [1]: 18 u/L
- ALBUMIN [1]: 3.07 G/DL
- ALKALINE PHOSPHATASE [1]: 189.33 u/L
- ASPARTATE AMINOTRANSFERASE [1]: 63 u/L
- BLOOD UREA NITROGEN [1]: 17.33 mg/dL
- CARBON DIOXIDE [1]: 28.33 mmol/L
- CHLORIDE [1]: 97.33 MEQ/L
- CHOLESTEROL [1]: 61 mg/dL
- CREATININE [1]: 0.15 mg/dL
- GLUCOSE [1]: 131.67 mg/dL
- LACTATE DEHYDROGENASE [1]: 149.67 u/L
- LIPASE [1]: 8.33 u/L
- PHOSPHORUS [1]: 10.43 mg/dL
- POTASSIUM [1]: 4.72 MEQ/L
- SODIUM [1]: 144.73 MEQ/L
- TOTAL BILIRUBIN [1]: 0.1 mg/dL
- TOTAL PROTEIN [1]: 6.4 G/DL
- URIC ACID [1]: 1.37 mg/dL
- ABSOLUTE BASOPHIL (96 h, time 4 day): 0 CELLS/uL
- ABSOLUTE EOSINOPHIL (96 h, time 4 day): 0 CELLS/uL
- ABSOLUTE LYMPHOCYTE (96 h, time 4 day): 3924 CELLS/uL
- ABSOLUTE MONOCYTE (96 h, time 4 day): 981 CELLS/uL
- ABSOLUTE SEGMENTED NEUTROPHIL (96 h, time 4 day): 16695 CELLS/uL
- BASOPHIL (96 h, time 4 day): 0%
- EOSINOPHIL (96 h, time 4 day): 0%
- ERYTHROCYTE COUNT (96 h, time 4 day): 6.21 x10E6/uL
- HEMATOCRIT (96 h, time 4 day): 36.1%
- HEMOGLOBIN (96 h, time 4 day): 13.4 G/DL
- LEUKOCYTE COUNT (96 h, time 4 day): 21.6 x10E3/uL
- LYMPHOCYTE (96 h, time 4 day): 18%
- MEAN CORPUSCULAR HEMOGLOBIN (96 h, time 4 day): 21.6 pg
- MEAN CORPUSCULAR HEMOGLOBIN CONCENTRATION (96 h, time 4 day): 37.15 G/DL
- MONOCYTE (96 h, time 4 day): 4.5%
- NEUTROPHIL (96 h, time 4 day): 77.5%
- NUCLEATED RED BLOOD CELLS (96 h, time 4 day): 0 /100WBC
- PLATELET COUNT (96 h, time 4 day): 1458.5 x10E3/uL
- ALANINE AMINOTRANSFERASE [2]: 19 u/L
- ALBUMIN [2]: 2.45 G/DL
- ALKALINE PHOSPHATASE [2]: 153.5 u/L
- ASPARTATE AMINOTRANSFERASE [2]: 51.5 u/L
- BLOOD UREA NITROGEN [2]: 24 mg/dL
- CARBON DIOXIDE [2]: 32 mmol/L
- CHLORIDE [2]: 96.5 MEQ/L
- CHOLESTEROL [2]: 50.5 mg/dL
- CREATININE [2]: 0.16 mg/dL
- GLUCOSE [2]: 112.5 mg/dL
- LACTATE DEHYDROGENASE [2]: 173 u/L
- LIPASE [2]: 7.5 u/L
- PHOSPHORUS [2]: 10.1 mg/dL
- POTASSIUM [2]: 5.21 MEQ/L
- SODIUM [2]: 143.95 MEQ/L
- TOTAL BILIRUBIN [2]: 0.15 mg/dL
- TOTAL PROTEIN [2]: 6 G/DL
